Laboratory results from PubChem BioAssay AID1918938 (Molecular Pharmacology Branch, DTP, NCI, 2023).

Tested on: 556581-035-R-J1-PDC complex spheroid viability
Experiment: Anticancer human tumor 556581-035-R-J1-PDC patient-derived ovarian carcinoma cell line growth inhibition
Settings: for IC50: curve of first compound; for viability, T/C: stronger effect = lower value; active means viability on the fitted dose curve at most 10% of control; inactive means the rest
Description: Multicellular complex tumor spheroid response to LSD1 Inhibitor Iadademstat in combination with a variety of drugs and investigational agents in selected tumor cell lines
The current study was undertaken to assess response to LSD1 inhibitors in combination with standard-of-care drugs and investigational agents in solid tumor complex spheroid models as well as in the K-562 leukemia. Complex spheroids include a stromal component modeled by human endothelial cells (HUVEC) and fibroblasts modeled by human mesenchymal stem cells (MSCs). The concentration ranges selected for each drug and investigational agent were based upon clinically achievable concentrations if the clinical Cmax of the agent was known.
Compounds. The drugs and investigational agents used in this study are listed on Table 1. All of the agents used, including staurosporine (NSC755774) and gemcitabine (NSC613327), were obtained from the Developmental Therapeutics Program, NCI. FDA-approved anticancer drugs are available from the NCI at http://dtp.nci.nih.gov/branches/dscb/oncology_drugset_explanation.html. Drugs and investigational agents were >95% pure by proton nuclear magnetic resonance (NMR) and liquid chromatography/mass spectrometry (LC/MS). Stock solutions were prepared at 400x in DMSO, stored at -70 degrees C, and diluted in fresh medium prior to their use. The final concentration of DMSO in cell culture wells never exceeded 0.25% (v/v). The FDA-approved anticancer drug set is available from the Developmental Therapeutics Program at https://dtp.cancer.gov/organization/dscb/obtaining/available_plates.htm. All drugs and investigational agents were tested over a range starting from a high concentration at or near the clinical Cmax and decreasing in half-log increments. If the clinical Cmax for an agent had not been determined, the highest concentration tested was 10 microM.
Cell Lines. The patient-derived cancer cell (PDC) lines: 292921-168-R-J2-PDC, K24384-001-R-PDC, and 521955-158-R2-J5-PDC pancreatic carcinomas, 556581-035-R-J1 ovarian carcinoma, 324938-238-R-J1-PDC, 855422-203-R-J1-PDC and 883617-216-R-J1-PDC urothelial bladder carcinomas, 743489-274-T-PDC renal cell carcinoma, 138582-R-J1 Merkel cell tumor, K60290-347-R-J1 and K57222-313-R-J1-PDC glioblastomas, 653999-131-R-J2-PDC, LG0703-F948-PDC, and 349418-098-R-PDC non-small cell lung carcinomas, 885512-296-R-J2-PDC, 171881-019-R-J1-PDC breast carcinomas and 186277-243-T-J2-PDC and 233499-124-R-J2-PDC colon carcinomas were obtained from the NCI Patient-Derived Models Repository (PDMR, https://pdmr.cancer.gov). The established cell lines NCI/ADR-RES (RRID:CVCL_14520 and OVCAR-5 (RRID:CVCL_1628) ovarian carcinomas, 786-O (RRID:CVCL_1051) and A498 (RRID:CVCL_A498) renal cell carcinoma, NCI-H211 (ATCC, cat. CRL-5824; RRID:CVCL_1529), NCI-H196 (ATCC, cat. CRL-5823, RRID:CVCL_1509), SW 1271 (ATCC, cat. CRL-2177, RRID:CVCL_1716) and NCI-H1876 (ATCC, cat. CRL-5902, RRID:CVCL_1503) small cell lung carcinomas, MDA-MB-231 (RRID:CVCL_0062) and MDA-MB-468 (RRID:CVCL_0419)breast carcinomas (10-12). Pooled donor human umbilical vein endothelial cells (HUVEC, Lonza, cat. CC-2519) and human mesenchymal stem cells (hMSC, Lonza, cat. PT-2501) were purchased from Lonza (Walkersville, MD).
Cell Culture. All cells were maintained in an incubator at 37 degrees C and 5% CO2 with 95% humidity. The PDC lines were cultured according to standard operating procedures established by the NCI PDMR (https://pdmr.cancer.gov). Briefly all PDCs were thawed and cultured in Matrigel-coated flasks prepared with a working solution of 1X Ham's F-12 nutrient mix, without supplementation (Invitrogen, Waltham, MA, cat. 11765054), 100 U/mL penicillin-streptomycin (Invitrogen, cat. 15140122), and 2.5% Matrigel (Corning Inc., Corning, NY, cat. 354248) for the first three passages. […]

[1] = second compound 0.1 µM, first compound 0.000949 µM
[2] = second compound 0.1 µM, first compound 0.003 µM
[3] = second compound 0.1 µM, first compound 0.00949 µM
[4] = second compound 0.1 µM, first compound 0.03 µM
[5] = second compound 0.1 µM, first compound 0.0949 µM
[6] = second compound 0.1 µM, first compound 0.3 µM
[7] = second compound 0.316 µM, first compound 0.000949 µM
[8] = second compound 0.316 µM, first compound 0.003 µM
[9] = second compound 0.316 µM, first compound 0.00949 µM
[10] = second compound 0.316 µM, first compound 0.03 µM
[11] = second compound 0.316 µM, first compound 0.0949 µM
[12] = second compound 0.316 µM, first compound 0.3 µM
[13] = second compound 1 µM, first compound 0.000949 µM
[14] = second compound 1 µM, first compound 0.003 µM
[15] = second compound 1 µM, first compound 0.00949 µM
[16] = second compound 1 µM, first compound 0.03 µM
[17] = second compound 1 µM, first compound 0.0949 µM
[18] = second compound 1 µM, first compound 0.3 µM
[19] = second compound 3.16 µM, first compound 0.000949 µM
[20] = second compound 3.16 µM, first compound 0.003 µM
[21] = second compound 3.16 µM, first compound 0.00949 µM
[22] = second compound 3.16 µM, first compound 0.03 µM
[23] = second compound 3.16 µM, first compound 0.0949 µM
[24] = second compound 3.16 µM, first compound 0.3 µM
[25] = second compound 10 µM, first compound 0.000949 µM
[26] = second compound 10 µM, first compound 0.003 µM
[27] = second compound 10 µM, first compound 0.00949 µM
[28] = second compound 10 µM, first compound 0.03 µM
[29] = second compound 10 µM, first compound 0.0949 µM
[30] = second compound 10 µM, first compound 0.3 µM
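Further: spheroids exposed to agents for seven days.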

CCc1c2c(nc3ccc(O)cc13)-c1cc3c(c(=O)n1C2)COC(=O)[C@]3(O)CC + NC1CC1c1ccc(-c2cccc(O)c2)cc1
inactive: viability, T/C [1] 14.6% | viability, T/C [7] 15.4% | viability, T/C [13] 15.4% | viability, T/C [19] 13.8% | viability, T/C [25] 14.4%
active: viability, T/C [2] 11% | viability, T/C [3] 0.89% | viability, T/C [4] 0.24% | viability, T/C [5] 0.2% | viability, T/C [6] 0.32% | viability, T/C [8] 11.4% | viability, T/C [9] 0.92% | viability, T/C [10] 0.23% | viability, T/C [11] 0.17% | viability, T/C [12] 0.28% | viability, T/C [14] 12.1% | viability, T/C [15] 1.74% | viability, T/C [16] 0.23% | viability, T/C [17] 0.19% | viability, T/C [18] 0.27% | viability, T/C [20] 11.7% | viability, T/C [21] 1.62% | viability, T/C [22] 0.26% | viability, T/C [23] 0.27% | viability, T/C [24] 0.73% | viability, T/C [26] 10.7% | viability, T/C [27] 1.64% | viability, T/C [28] 0.89% | viability, T/C [29] 0.3% | viability, T/C [30] 0.37%
< 0.949 nM: IC50 (second compound 0.1 µM) | IC50 (second compound 0.316 µM) | IC50 (second compound 1 µM) | IC50 (second compound 3.16 µM) | IC50 (second compound 10 µM)

Nc1ccn(C2OC(CO)C(O)C2(F)F)c(=O)n1 (stereo not given) + NC1CC1c1ccc(-c2cccc(O)c2)cc1
1.32 nM: IC50 (second compound 0.1 µM)
1.75 nM: IC50 (second compound 3.16 µM)
1.4 nM: IC50 (second compound 0.316 µM)
1.94 nM: IC50 (second compound 1 µM)
inactive: viability, T/C [1] 58.8% | viability, T/C [2] 28.2% | viability, T/C [3] 22.4% | viability, T/C [4] 26.8% | viability, T/C [5] 29.3% | viability, T/C [6] 27% | viability, T/C [7] 60.1% | viability, T/C [8] 30.7% | viability, T/C [9] 24.3% | viability, T/C [10] 25% | viability, T/C [11] 29.3% | viability, T/C [12] 27.1% | viability, T/C [13] 74% | viability, T/C [14] 36.5% | viability, T/C [15] 24.2% | viability, T/C [16] 25.4% | viability, T/C [17] 29.9% | viability, T/C [18] 22.9% | viability, T/C [19] 71% | viability, T/C [20] 31.3% | viability, T/C [21] 28.9% | viability, T/C [22] 26.5% | viability, T/C [23] 28.5% | viability, T/C [24] 29% | viability, T/C [25] 67.2% | viability, T/C [26] 37.3% | viability, T/C [27] 34.1% | viability, T/C [28] 29.8% | viability, T/C [29] 37.1% | viability, T/C [30] 34.1%
1.83 nM: IC50 (second compound 10 µM)

O=C(c1cc(Cc2n[nH]c(=O)c3ccccc23)ccc1F)N1CCN(C(=O)C2CC2)CC1 + NC1CC1c1ccc(-c2cccc(O)c2)cc1
> 10000 nM: IC50 (second compound 0.1 µM) | IC50 (second compound 0.316 µM) | IC50 (second compound 1 µM) | IC50 (second compound 3.16 µM)
inactive: viability, T/C (second compound 0.1 µM, first compound 0.0316 µM) 86.1% | viability, T/C (second compound 0.1 µM, first compound 0.1 µM) 86.2% | viability, T/C (second compound 0.1 µM, first compound 0.316 µM) 93.4% | viability, T/C (second compound 0.1 µM, first compound 1 µM) 76.6% | viability, T/C (second compound 0.1 µM, first compound 3.16 µM) 77.2% | viability, T/C (second compound 0.1 µM, first compound 10 µM) 63.4% | viability, T/C (second compound 0.316 µM, first compound 0.0316 µM) 92.3% | viability, T/C (second compound 0.316 µM, first compound 0.1 µM) 83.2% | viability, T/C (second compound 0.316 µM, first compound 0.316 µM) 74.8% | viability, T/C (second compound 0.316 µM, first compound 1 µM) 90.7% | viability, T/C (second compound 0.316 µM, first compound 3.16 µM) 72.2% | viability, T/C (second compound 0.316 µM, first compound 10 µM) 67.5% | viability, T/C (second compound 1 µM, first compound 0.0316 µM) 86.8% | viability, T/C (second compound 1 µM, first compound 0.1 µM) 83.5% | viability, T/C (second compound 1 µM, first compound 0.316 µM) 79.3% | viability, T/C (second compound 1 µM, first compound 1 µM) 69.9% | viability, T/C (second compound 1 µM, first compound 3.16 µM) 61.5% | viability, T/C (second compound 1 µM, first compound 10 µM) 58.8% | viability, T/C (second compound 3.16 µM, first compound 0.0316 µM) 84.4% | viability, T/C (second compound 3.16 µM, first compound 0.1 µM) 80.2% | viability, T/C (second compound 3.16 µM, first compound 0.316 µM) 84.9% | viability, T/C (second compound 3.16 µM, first compound 1 µM) 79.5% | viability, T/C (second compound 3.16 µM, first compound 3.16 µM) 61% | viability, T/C (second compound 3.16 µM, first compound 10 µM) 57.4% | viability, T/C (second compound 10 µM, first compound 0.0316 µM) 79.1% | viability, T/C (second compound 10 µM, first compound 0.1 µM) 76% | viability, T/C (second compound 10 µM, first compound 0.316 µM) 79.2% | viability, T/C (second compound 10 µM, first compound 1 µM) 70.6% | viability, T/C (second compound 10 µM, first compound 3.16 µM) 61.6% | viability, T/C (second compound 10 µM, first compound 10 µM) 49.4%
9280 nM: IC50 (second compound 10 µM)
